Laboratory results reported in publication PMC9007951, “Systematically evaluating DOTATATE and FDG as PET immuno-imaging tracers of cardiovascular inflammation” (Scientific Reports, 2022).
Like-named read-outs stand apart in the source and are kept apart here.

Test: Timed organ biodistribution of [^64Cu]Cu-DOTATATE by ex vivo gamma counting
Format: in vivo, mice
Settings: mouse, intravenous, 1.85 MBq, total radioactivity, median (IQR); for tissue uptake at 1 min: 1 min after injection; for tissue uptake at 5 min: 5 min after injection; for tissue uptake at 0.25 h: 15 min after injection; for tissue uptake at 0.5 h: 30 min after injection; for tissue uptake at 2 h: 120 min after injection; for tissue uptake at 1 h: 60 min after injection
Description: Wild-type and atherosclerotic animals were injected with approximately 1.85 MBq of [^64Cu]Cu-DOTATATE and euthanized at either 1, 5, 15, 30, 60 or 120 min after injection (Supplementary Fig. S1A) to evaluate the tracer’s biodistribution. After euthanasia, an insulin syringe was used to collect blood samples from the right ventricle. Blood samples were used for the establishment of pharmacokinetics profile. Mice were then perfused with 20 mL of phosphate-buffered saline (PBS) and tissues of interest (heart, aorta, bone marrow, spleen, liver, stomach, bladder, kidneys, intestines, lungs, adrenal gland, muscles and pancreas) were harvested. Tissues were blotted for gamma counting on a Wizard2 2480 automatic gamma counter (Perkin Elmer, Waltham, MA). Values were corrected for decay and normalized to tissue weight to express radioactivity concentration as percentage injected dose per gram (%ID/g). […] To investigate the tracer’s distribution within different blood compartments, after gamma counting, 100 μL of blood were spun down at 2000 g for 15 min at 4 °C. Plasma (supernatant) and cells (pellet) were gamma counted and expressed as percentage of total activity. The remainder of the blood was separated using Lymphoprep density gradient medium (Nycomed Pharma, Zurich, Switzerland) following manufacturer’s instructions. Percentage of activity in mononuclear and polynuclear cells was calculated.

[1] = abdominal aorta, female Apoe^-/- mice 12 weeks on Western Diet, N=3-8, read-out: Tissue radioactivity, abdominal aorta
[2] = abdominal aorta, female C57BL/6 mice, N=3-7, read-out: Tissue radioactivity, abdominal aorta
[3] = adrenal gland, female Apoe^-/- mice 12 weeks on Western Diet, N=3-8, read-out: Tissue radioactivity, adrenal gland
[4] = adrenal gland, female C57BL/6 mice, N=3-7, read-out: Tissue radioactivity, adrenal gland
[5] = aortic arch, female Apoe^-/- mice 12 weeks on Western Diet, N=3-8, read-out: Tissue radioactivity, aortic arch
[6] = aortic arch, female C57BL/6 mice, N=3-7, read-out: Tissue radioactivity, aortic arch
[7] = bladder, female Apoe^-/- mice 12 weeks on Western Diet, N=3-8, read-out: Tissue radioactivity, bladder
[8] = bladder, female C57BL/6 mice, N=3-7, read-out: Tissue radioactivity, bladder
[9] = bone marrow, female Apoe^-/- mice 12 weeks on Western Diet, N=3-8, read-out: Tissue radioactivity, bone marrow
[10] = bone marrow, female C57BL/6 mice, N=3-7, read-out: Tissue radioactivity, bone marrow
[11] = fat, female Apoe^-/- mice 12 weeks on Western Diet, N=3-8, read-out: Tissue radioactivity, fat
[12] = fat, female C57BL/6 mice, N=3-7, read-out: Tissue radioactivity, fat
[13] = heart, female Apoe^-/- mice 12 weeks on Western Diet, N=3-8, read-out: Tissue radioactivity, heart
[14] = heart, female C57BL/6 mice, N=3-7, read-out: Tissue radioactivity, heart
[15] = kidneys, female Apoe^-/- mice 12 weeks on Western Diet, N=3-8, read-out: Tissue radioactivity, kidneys
[16] = kidneys, female C57BL/6 mice, N=3-7, read-out: Tissue radioactivity, kidneys
[17] = large intestine, female Apoe^-/- mice 12 weeks on Western Diet, N=3-8, read-out: Tissue radioactivity, large intestine
[18] = large intestine, female C57BL/6 mice, N=3-7, read-out: Tissue radioactivity, large intestine
[19] = liver, female Apoe^-/- mice 12 weeks on Western Diet, N=3-8, read-out: Tissue radioactivity, liver

**Q.** What does the source list for `C[C@@H](O)[C@H](NC(=O)[C@@H]1CSSC[C@H](NC(=O)[C@@H](Cc2ccccc2)NC(=O)CN2CCN(CC(=O)O)CCN(CC(=O)O)CCN(CC(=O)O)CC2)C(=O)N[C@@H](Cc2ccc(O)cc2)C(=O)N[C@H](Cc2c[nH]c3ccccc23)C(=O)N[C@@H](CCCCN)C(=O)N[C@@H]([C@@H](C)O)C(=O)N1)C(=O)O` [[^64Cu]Cu-DOTATATE, metal not drawn]?
**A.** tissue uptake at 1 min [1]: 3.1 %ID/g; tissue uptake at 5 min [1]: 3.2 %ID/g; tissue uptake at 0.25 h [1]: 2.1 %ID/g; tissue uptake at 0.5 h [1]: 2.5 %ID/g; tissue uptake at 2 h [1]: 2.1 %ID/g; tissue uptake at 1 min [2]: 5.1 %ID/g; tissue uptake at 5 min [2]: 3.8 %ID/g; tissue uptake at 0.25 h [2]: 2.4 %ID/g; tissue uptake at 0.5 h [2]: 1.7 %ID/g; tissue uptake at 1 h [2]: 1.3 %ID/g; tissue uptake at 2 h [2]: 0.7 %ID/g; tissue uptake at 1 min [3]: 1.4 %ID/g; tissue uptake at 5 min [3]: 1.2 %ID/g; tissue uptake at 0.25 h [3]: 1.4 %ID/g; tissue uptake at 0.5 h [3]: 1.5 %ID/g; tissue uptake at 1 h [3]: 1.4 %ID/g; tissue uptake at 2 h [3]: 1.1 %ID/g; tissue uptake at 0.25 h [4]: 1.7 %ID/g; tissue uptake at 0.5 h [4]: 1.6 %ID/g; tissue uptake at 1 h [4]: 1.6 %ID/g; tissue uptake at 2 h [4]: 0.6 %ID/g; tissue uptake at 1 min [5]: 2.9 %ID/g; tissue uptake at 0.25 h [5]: 1.7 %ID/g; tissue uptake at 0.5 h [5]: 1.7 %ID/g; tissue uptake at 1 min [6]: 2.8 %ID/g; tissue uptake at 0.25 h [6]: 1.3 %ID/g; tissue uptake at 0.5 h [6]: 1.1 %ID/g; tissue uptake at 1 h [6]: 1.1 %ID/g; tissue uptake at 2 h [6]: 1.2 %ID/g; tissue uptake at 1 min [7]: 1.7 %ID/g; tissue uptake at 5 min [7]: 98.7 %ID/g; tissue uptake at 0.25 h [7]: 38.9 %ID/g; tissue uptake at 0.5 h [7]: 2.9 %ID/g; tissue uptake at 1 h [7]: 4.7 %ID/g; tissue uptake at 2 h [7]: 2.4 %ID/g; tissue uptake at 1 min [8]: 4.6 %ID/g; tissue uptake at 5 min [8]: 36.4 %ID/g; tissue uptake at 0.25 h [8]: 7.9 %ID/g; tissue uptake at 0.5 h [8]: 6.8 %ID/g; tissue uptake at 2 h [8]: 10.4 %ID/g; tissue uptake at 1 min [9]: 3.1 %ID/g; tissue uptake at 5 min [9]: 2.3 %ID/g; tissue uptake at 0.25 h [9]: 2.6 %ID/g; tissue uptake at 2 h [9]: 2.7 %ID/g; tissue uptake at 5 min [10]: 4.3 %ID/g; tissue uptake at 0.25 h [10]: 3.5 %ID/g; tissue uptake at 1 h [10]: 2.1 %ID/g; tissue uptake at 2 h [10]: 2.5 %ID/g; tissue uptake at 1 min [11]: 0.3 %ID/g; tissue uptake at 5 min [11]: 0.4 %ID/g; tissue uptake at 0.25 h [11]: 0.4 %ID/g; tissue uptake at 0.5 h [11]: 0.3 %ID/g; tissue uptake at 1 h [11]: 0.2 %ID/g; tissue uptake at 2 h [11]: 0.2 %ID/g; tissue uptake at 1 min [12]: 1.1 %ID/g; tissue uptake at 5 min [12]: 1.3 %ID/g; tissue uptake at 0.25 h [12]: 0.8 %ID/g; tissue uptake at 0.5 h [12]: 0.5 %ID/g; tissue uptake at 1 h [12]: 0.3 %ID/g; tissue uptake at 2 h [12]: 0.2 %ID/g; tissue uptake at 1 min [13]: 2.3 %ID/g; tissue uptake at 5 min [13]: 1.4 %ID/g; tissue uptake at 0.25 h [13]: 1.1 %ID/g; tissue uptake at 1 h [13]: 1.3 %ID/g; tissue uptake at 2 h [13]: 1.4 %ID/g; tissue uptake at 1 min [14]: 3.8 %ID/g; tissue uptake at 5 min [14]: 2.1 %ID/g; tissue uptake at 0.25 h [14]: 1.1 %ID/g; tissue uptake at 1 h [14]: 0.8 %ID/g; tissue uptake at 2 h [14]: 0.7 %ID/g; tissue uptake at 1 min [15]: 15.6 %ID/g; tissue uptake at 5 min [15]: 22.9 %ID/g; tissue uptake at 0.25 h [15]: 13.2 %ID/g; tissue uptake at 0.5 h [15]: 8.8 %ID/g; tissue uptake at 1 min [16]: 26.8 %ID/g; tissue uptake at 5 min [16]: 20.5 %ID/g; tissue uptake at 0.25 h [16]: 11.5 %ID/g; tissue uptake at 0.5 h [16]: 8.2 %ID/g; tissue uptake at 1 h [16]: 6.1 %ID/g; tissue uptake at 1 min [17]: 1.3 %ID/g; tissue uptake at 5 min [17]: 1.3 %ID/g; tissue uptake at 0.5 h [17]: 2.8 %ID/g; tissue uptake at 2 h [17]: 3.8 %ID/g; tissue uptake at 1 min [18]: 2.7 %ID/g; tissue uptake at 5 min [18]: 1.6 %ID/g; tissue uptake at 0.5 h [18]: 1.7 %ID/g; tissue uptake at 1 h [18]: 3 %ID/g; tissue uptake at 2 h [18]: 3.1 %ID/g; tissue uptake at 1 min [19]: 4.4 %ID/g; tissue uptake at 5 min [19]: 4.9 %ID/g; tissue uptake at 0.25 h [19]: 8.6 %ID/g
